Results taken from patent publication US20020128214A1, “C-glucosyl ether lipids” (priority 2000, published 2002).

Key:
[1] = tested on: panel of epithelial cancer cell lines; assay: Cancer cell proliferation study, whole panel (FIGS. 1-9); assay type: cell-based; details: nine cancer cell lines, 48 hours, 10% FBS-supplemented medium
Protocol: (§1) In this study, the anti-proliferative effects of each of four glucosyl ether lipid compounds were assessed on a panel of epithelial cancer cell lines. Two Cglucosyl ether lipids in accordance with the invention (compounds 4 and 17) were evaluated. In addition, a 2′-deoxy C-glucosyl ether lipid (compound 2) and a 2′-amino-2′-deoxy O-glucosyl ether lipid (compound 3), were evaluated. Thirty mM stock concentration of each of the four compounds were prepared in ethanol.
(§2) The experimental procedure used is detailed in Lu, X. and Arthur, G., Cancer Res., 52:2806-2812 (1992), the pertinent parts of which are incorporated by reference. Briefly, the epithelial cancer cell lines, namely SK-N-MC and SK-N-SH (neuroblastoma); DU145 (prostate); A498 (kidney); MDA-MB-468, MDA-MB-231, HS578t, MCF-7 and BT549 (breast), were subcultured into 24-well plates and allowed to grow to exponential phase. The medium was changed and replaced with one containing the glucosyl ether lipid compounds ([…]) in 10% FBS-supplemented medium. The cell numbers in representative wells were determined at the time of addition of the compounds. After 48 hours, the cells were detached with trypsin and the numbers were determined with a Coulter Counter. The increase in cell numbers were expressed as a percentage relative to those in wells without any drug (control).

SK-N-MC (neuroblastoma) = assay: Anti-proliferation, cell count after 48 h (Coulter Counter), SK-N-MC; assay type: cell-based; details: neuronal, treated 48 hours, extrapolated from FIGS. 1-9
Protocol: as §1, §2
(§3) See Erukulla, et al., J. Med. Chem., 39:1545-1548 (1996), the pertinent portions of which are incorporated herein by reference. Table 1 summarizes the comparative test results for 17, 3, 4, and the 2-deoxy analog of 4, (3S)-3-O-methyl-4-O-hexadecyl-2′-deoxy-β-D-glucopyranosylbutane (compound 2), which had been described in our earlier paper (Yang et al., Org. Lett., 1:2149-2151 (1999)). The method utilized was the same as that described in Example 2 above, and the Gl50 values were extrapolated from the results shown in FIGS. 1-9. In all nine examples, the close similarity in antiproliferative activity is striking.

HS578T (breast) = assay: Anti-proliferation, cell count after 48 h (Coulter Counter), HS578T; assay type: cell-based; details: treated 48 hours, extrapolated from FIGS. 1-9
Protocol: as §1, §2, §3

BT549 (breast) = assay: Anti-proliferation, cell count after 48 h (Coulter Counter), BT549; assay type: cell-based; details: treated 48 hours, extrapolated from FIGS. 1-9
Protocol: as §1, §2, §3

SK-N-SH (neuroblastoma) = assay: Anti-proliferation, cell count after 48 h (Coulter Counter), SK-N-SH; assay type: cell-based; details: neuronal, treated 48 hours, extrapolated from FIGS. 1-9
Protocol: as §1, §2, §3

MDA-MB-468 (breast) = assay: Anti-proliferation, cell count after 48 h (Coulter Counter), MDA-MB-468; assay type: cell-based; details: treated 48 hours, extrapolated from FIGS. 1-9
Protocol: as §1, §2, §3

DU145 (prostate) = assay: Anti-proliferation, cell count after 48 h (Coulter Counter), DU145; assay type: cell-based; details: treated 48 hours, extrapolated from FIGS. 1-9
Protocol: as §1, §2, §3

MDA-MB-231 (breast) = assay: Anti-proliferation, cell count after 48 h (Coulter Counter), MDA-MB-231; assay type: cell-based; details: treated 48 hours, extrapolated from FIGS. 1-9
Protocol: as §1, §2, §3

A498 (kidney) = assay: Anti-proliferation, cell count after 48 h (Coulter Counter), A498; assay type: cell-based; details: treated 48 hours, extrapolated from FIGS. 1-9
Protocol: as §1, §2, §3

[2] = comparison with compound 1; cited from earlier work
MCF-7 (breast) = assay: Anti-proliferation, cell count after 48 h (Coulter Counter), MCF-7; assay type: cell-based; details: treated 48 hours, extrapolated from FIGS. 1-9
Protocol: as §1, §2, §3

Storage stability = assay type: physicochemical; details: stored at 0° C.
Protocol: Deprotection and reduction of alkene 15 using H2 and 10% Pd/C afforded β-C-glycoside 16 in 85% yield. Of the several methods attempted for cleavage of the silyl group (e.g., Bu4NF, formic acid, acidic ionic exchange resin, and BF3, Et2O conditions), only BF3,Et2O in CH3CN gave a clean reaction (see King, et al., Tetrahedron Lett., 36:4563 (1995), the pertinent portions of which are incorporated herein by reference). The N-acetyl group was cleaved by using 2 N KOH/EtOH at reflux at 120° C. to afford the final product 4. [drawing 8]

Q: For `CCCCCCCCCCCCCCCCOC[C@H](CC[C@H]1C[C@@H](O)[C@H](O)[C@@H](CO)O1)OC` [Compound 2, (3S)-3-O-methyl-4-O-hexadecyl-2′-deoxy-β-D-glucopyranosylbutane, reference compound], which “anti-proliferative efficacy (increase in cell numbers relative to control)” value [1] is on record?
A: Its value is “generally less efficacious than the other two glycoside ether lipids evaluated”.

Q: What about the GI50 (SK-N-MC (neuroblastoma)) of the same compound?
A: Its GI50 is greater than 15 µM.

Q: What about the GI50 (HS578T (breast)) of the same compound?
A: The GI50 was greater than 15 µM.

Q: And the GI50 (BT549 (breast))?
A: The GI50 was greater than 15 µM.

Q: What about the GI50 (SK-N-SH (neuroblastoma)) of the same compound?
A: Its GI50 is greater than 15 µM.

Q: What about the GI50 (MDA-MB-468 (breast)) of the same compound?
A: The GI50 was 11.4 µM.

Q: And the GI50 (DU145 (prostate))?
A: Its GI50 is greater than 15 µM.

Q: And the GI50 (MDA-MB-231 (breast))?
A: Its GI50 is greater than 15 µM.

Q: And the GI50 (A498 (kidney))?
A: The GI50 was greater than 15 µM.

Q: And the “antiproliferative activity of C-glycoside relative to O-glycoside compound 1” value [2]?
A: Its value is “several fold weaker activity”.

Q: And the GI50 (MCF-7 (breast))?
A: Its GI50 is greater than 15 µM.

Q: For `CCCCCCCCCCCCCCCCOC[C@H](CC[C@@H]1O[C@H](CO)[C@@H](O)[C@H](O)[C@H]1N)OC` [Compound 4, (3S)-3-O-methyl-4-O-hexadecyl-2′-amino-2′-deoxy-β-Dlucopyranosylbutane], which “storage time without decomposition” value (Storage stability) is on record?
A: Its value is “more than one month without any decomposition”.

Q: What about the GI50 (SK-N-MC (neuroblastoma)) of the same compound?
A: Its GI50 is 4.1 µM.

Q: And the GI50 (HS578T (breast))?
A: The GI50 was 5.1 µM.

Q: And the GI50 (BT549 (breast))?
A: Its GI50 is 8.9 µM.

Q: What about the GI50 (SK-N-SH (neuroblastoma)) of the same compound?
A: The GI50 was 4.1 µM.

Q: And the GI50 (MDA-MB-468 (breast))?
A: Its GI50 is 9 µM.

Q: And the GI50 (DU145 (prostate))?
A: The GI50 was 7.9 µM.

Q: And the GI50 (MDA-MB-231 (breast))?
A: The GI50 was 9.1 µM.

Q: And the GI50 (A498 (kidney))?
A: Its GI50 is 8.5 µM.

Q: What about the GI50 (MCF-7 (breast)) of the same compound?
A: Its GI50 is 8.1 µM.

Q: With `CCCCCCCCCCCCCCCCOC[C@H](CC[C@@H]1O[C@H](CO)[C@@H](O)[C@H](O)[C@H]1NC(C)=O)OC` [Compound 17, (3S)-3-O-Methyl-4-O-hexadecyl 2′-acetamido-2′-deoxy-β-D-glucopyranosylbutane] as the compound, how does the “anti-proliferative efficacy (increase in cell numbers relative to control)” value [1] read?
A: Its value is “generally less efficacious than the other two glycoside ether lipids evaluated”.

Q: And the GI50 (SK-N-MC (neuroblastoma))?
A: The GI50 was greater than 15 µM.

Q: What about the GI50 (HS578T (breast)) of the same compound?
A: The GI50 was 21 µM.

Q: And the GI50 (BT549 (breast))?
A: Its GI50 is 28.5 µM.

Q: And the GI50 (SK-N-SH (neuroblastoma))?
A: The GI50 was greater than 15 µM.

Q: What about the GI50 (MDA-MB-468 (breast)) of the same compound?
A: Its GI50 is 34.4 µM.

Q: What about the GI50 (DU145 (prostate)) of the same compound?
A: Its GI50 is greater than 15 µM.

Q: What about the GI50 (MDA-MB-231 (breast)) of the same compound?
A: The GI50 was 40 µM.

Q: And the GI50 (A498 (kidney))?
A: Its GI50 is greater than 15 µM.

Q: And the GI50 (MCF-7 (breast))?
A: Its GI50 is 25 µM.
